Patent US20150005252A1, “COMBINATION THERAPY FOR THE TREATMENT OF CANCER” (TILTAN PHARMA LTD., priority 2012, published 2015)

System: Mouse pancreatic-adenocarcinoma cell-line PANC02
Experiment: Orthotopic PANC02 pancreatic tumor model in mice, IP treatment, tumors excised and weighed on Day 18
Assay type: in vivo
Description: Total study duration was 18 days (Treatment period: 14 days, i.e. two weekly treatment schedules). Tumour cells inoculation day was registered as “Day 1”. The compositions were administered IP six days per week starting on Day 4.
Tumor Cells: Mouse pancreatic-adenocarcinoma cell-line PANC02 (a kind gift from Dr A. Marten, University of Heidelberg, Germany).
CB6F1 female mice, 21.1 g average body weight, 10 mice per treatment group.
Five test groups were conducted, each administered with a different treatment composition and schedule as detailed in Tables 1 and 2 below.
Treatment Groups were administered with either vehicle alone (Group 1), a combination of TL-118 and Gemcitabine (Groups 2 and 3), Gemcitabine alone 9 Group 4) and TL-118 alone (Group 5).
• In Groups 2 and 5 the 1st day of TL-118 was Wed. while for Group 3 1st day of TL-118 was Thur. No treatment was given on Sat (see also Table 3 below).
In Group 2 the treatment started with TL-118 and Gemcitabine was administered on the following day while in Group 3 the treatment started with Gemcitabine administration then TL-118 initiation on the following day (see Table 3 below).
The cells were removed from flasks using trypsin. 60 million (60×10^6) cells were counted and re-suspended in 4.5 ml phosphate buffered saline. Before cell spin-down, cells were strained through cell strainer according to the following procedure: • 1. Strainer was placed on 50 ml tube; • 2. Strainer was washed with 5 ml phosphate buffered saline; • 3. Cells detached from flasks in RPMI growth medium were poured over strainer; • 4. Strainer was washed with 5 ml phosphate buffered saline.
Tumor cells (4×10^5 cells, in 30 μl, per animal) are injected into the pancreas using needle 30 G. Tumor cells inoculation to animals was performed under anesthesia (Ketamine 85 mg/kg & Xylasine 5 mg/kg).
Compositions were administered IP using needle 27 G. Compositions were administered daily from Day 4 for duration of […] (see Table I). Body weights measurements (twice weekly) were used for dosing volume calculations from recent measurement. […]

With `Nc1ccn([C@@H]2O[C@H](CO)[C@@H](O)C2(F)F)c(=O)n1` [Gemcitabine, 4-amino-1-(2-deoxy-2,2-difluoro-β-D-erythro-pentofuranosyl)pyrimidin-2(1H)-on] the “representative tumors found at the end of treatment schedule” value (FIGS. 5A-5E, compared with large tumors in vehicle Group 1) was “smaller volume tumors”, the “End Result Effect: tumor size relative to vehicle” value (Table 3, end of study, vehicle: very large tumors) was “small tumors relative” and the “percentage of tumor bearing animals” value (end of study (Day 18), CB6F1 female mice, IP, FIG. 1) was “about 80%”.
